The structures appear in SMILES notation. pEC50: −log10 of the molar value.

Consider ten compounds from patent US12552767B2, “3-heteroaryl pyrrolidine and piperidine orexin receptor agonists” (Merck Sharp & Dohme LLC, priority 2020, dated 2026).

The experiment deals with T1, human OX2R (Homo sapiens, UniProt O43614).
T1 construct: expressed in transfected cells; host or cells: CHO (Chinese hamster ovary) cells, grown under G418 selection
T1 sequence (O43614 1-444): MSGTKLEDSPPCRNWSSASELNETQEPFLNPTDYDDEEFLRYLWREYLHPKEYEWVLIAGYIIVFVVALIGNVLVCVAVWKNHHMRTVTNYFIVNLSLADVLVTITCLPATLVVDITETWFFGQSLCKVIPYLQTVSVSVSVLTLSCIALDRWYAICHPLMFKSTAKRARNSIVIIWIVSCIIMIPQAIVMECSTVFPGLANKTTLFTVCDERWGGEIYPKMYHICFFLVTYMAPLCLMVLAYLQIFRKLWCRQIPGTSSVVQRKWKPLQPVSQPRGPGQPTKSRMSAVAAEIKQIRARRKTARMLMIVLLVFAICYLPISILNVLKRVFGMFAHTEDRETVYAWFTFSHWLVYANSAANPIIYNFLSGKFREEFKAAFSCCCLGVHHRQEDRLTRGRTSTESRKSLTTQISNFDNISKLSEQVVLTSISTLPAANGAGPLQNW
The experiment is described as follows: IP-One (IPOne) orexin receptor agonist assay in CHO cells expressing human OX2R. Conditions: for pEC50: CHO cells expressing human OX2R, IP-One IP-1 detection, 2 hours incubation, four parameter logistic fit, read-out: OX2R Potency, EC50; for % of reference agonist maximal effect: human OX2R, percentage of sample raw value/mean max effect (reference compound at 1 uM with 100% activity). The experiment is classed as cell-based. A digest of the protocol:
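CHO cells stably expressing human OX2R were stimulated with compound (10-point ½-log dilutions) for 2 h at 37 °C. IP-1 accumulation was read by HTRF (IP-One, 665/620 nm). EC50 from a four-parameter fit; % effect relative to 1 μM reference agonist control.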

Regarding `O=C(OC(CF)CF)N1CCC[C@H](c2cc[nH]n2)[C@@H]1CO[C@H]1CC[C@@H](c2ccccc2)CC1` (relative stereo) [Example 113, 1,3-difluoropropan-2-yl (CIS)-2-((((CIS)-4-phenylcyclohexyl)oxy)methyl)-3-(1H-pyrazol-3-yl)piperidine-1-carboxylate], the negative logarithm of the EC50 (pEC50) (in general, the EC50 on a negative log10 scale, so that one unit is a factor of ten) was 5.18 and the “% of reference agonist maximal effect” value was 57.4%.

As for `Cc1cn[nH]c1[C@H]1CCCN(C(=O)OCC(F)F)[C@H]1CO[C@H]1CC[C@@H](c2ccccc2)CC1` (relative stereo) [Example 24, 2,2-difluoroethyl (CIS)-3-(4-methyl-1H-pyrazol-5-yl)-2-((((CIS)-4-phenylcyclohexyl)oxy)methyl)piperidine-1-carboxylate], the negative-log EC50 (pEC50) was 6.46 and the “% of reference agonist maximal effect” value is 100.4%.

As to `O=C(OCC(F)(F)F)N1CCC[C@H](c2cc[nH]n2)[C@@H]1CO[C@H]1CC[C@@H](c2ccccc2)CC1` (relative stereo) [Example 102, 2,2,2-trifluoroethyl (CIS)-2-((((CIS)-4-phenylcyclohexyl)oxy)methyl)-3-(1H-pyrazol-3-yl)piperidine-1-carboxylate], the pEC50 is 5.53 and the “% of reference agonist maximal effect” value came out at 40.7%.

`COC(=O)N1CCC[C@H](c2[nH]ncc2C)[C@@H]1CO[C@H]1CC[C@@H](c2ccccc2)CC1` (relative stereo) [Example 23, methyl (CIS)-3-(4-methyl-1H-pyrazol-5-yl)-2-((((CIS)-4-phenylcyclohexyl)oxy)methyl)piperidine-1-carboxylate]: the negative-log EC50 (pEC50) was 6.68 and the “% of reference agonist maximal effect” value amounted to 98.6%.

`COC(=O)N1CCC[C@H](c2n[nH]cc2C)[C@@H]1COC1CC=C(c2cccc(F)c2)CC1` (stereo partly drawn) [Example 13, methyl (CIS)-2-((((S)-3′-fluoro-2,3,4,5-tetrahydro-[1,1′-biphenyl]-4-yl)oxy)methyl)-3-(4-methyl-1H-pyrazol-3-yl)piperidine-1-carboxylate]: the negative-log EC50 (pEC50) was 5.32 and the “% of reference agonist maximal effect” value is on record as 84.6%.

Consider `Cc1c[nH]nc1[C@H]1CCCN(C(=O)OC(C)C)[C@H]1COC1CCN(c2ncccn2)CC1` (relative stereo) [Example 9, Isopropyl (CIS)-3-(4-methyl-1H-pyrazol-3-yl)-2-(((1-(pyrimidin-2-yl)piperidin-4-yl)oxy)methyl)piperidine-1-carboxylate], for which the negative-log EC50 (pEC50) is 6.60 and the “% of reference agonist maximal effect” value was 100.7%.

In the case of `O=C(CO)N1CCCC(c2ccn[nH]2)C1CO[C@H]1CC[C@@H](c2c(F)ccc(F)c2F)CC1` (relative stereo) [Example 32, 1-(3-(1H-Pyrazol-5-yl)-2-((((CIS)-4-(2,3,6-trifluorophenyl)cyclohexyl)oxy)methyl)piperidin-1-yl)-2-hydroxyethan-1-one], the negative logarithm of the EC50 (pEC50) was 5.43 and the “% of reference agonist maximal effect” value is 86.3%.

Regarding `COC(=O)N1CCC[C@H](c2n[nH]cc2Cl)[C@@H]1CO[C@H]1CC[C@@H](c2ccc(Cl)cc2)CC1` (racemic) [Example 48, Methyl cis-3-(4-chloro-1H-pyrazol-3-yl)-2-((((CIS)-4-(4-chlorophenyl)cyclohexyl)-oxy)methyl)piperidine-1-carboxylate], the pEC50 is 6.04 and the “% of reference agonist maximal effect” value is listed as 97.6%.

For the compound `O=C(OC1CCCC1)N1CCC[C@H](c2cc[nH]n2)[C@@H]1CO[C@H]1CC[C@@H](c2ccccc2)CC1` (relative stereo) [Example 117, cyclopentyl (CIS)-2-((((CIS)-4-phenylcyclohexyl)oxy)methyl)-3-(1H-pyrazol-3-yl)piperidine-1-carboxylate], the pEC50 is 5.10 and the “% of reference agonist maximal effect” value is on record as 47.3%.

Take `CCc1c[nH]nc1[C@@H]1CCCN(C(=O)OC)[C@@H]1CO[C@H]1CC[C@@H](c2ccccc2)CC1` [Example 44, (2S,3R)-3-(4-ethyl-1H-pyrazol-3-yl)-2-((((CIS)-4-phenylcyclohexyl)oxy)methyl)piperidine-1-carboxylate]: the negative logarithm of the EC50 (pEC50) was under 5.00 and the “% of reference agonist maximal effect” value amounted to 9.5%.
